Source: patent US20250263370A1 (Tay Therapeutics Limited, priority 2022, published 2025)
Read-outs that look alike come from different tables or passages of the source.

Tests used:
[1] = Sprague-Dawley rat pharmacokinetics, IV and PO cassette dosing; type: in vivo
Summary of the method: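 Male Sprague-Dawley rats (2 per arm) given up to 5 compounds in cassette, 1 mg/kg IV and 5 mg/kg PO, formulated in 5% DMSO/40% PEG-400/55% water. Plasma from serial blood samples was acetonitrile-precipitated and analysed by LC/MS/MS against matrix-matched standard curves.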

[2] = Beagle dog PK study 1 of Example 101 (propylene glycol-based formulation, IV and PO), with clinical observations; type: in vivo; conditions: for concentration at 0.083 h / concentration at 0.25 h / concentration at 0.5 h / concentration at 1 h / concentration at 2 h / concentration at 4 h / concentration at 8 h / concentration at 24 h / AUC(0-inf) / AUC(0-t) / C0 / half-life / MRT inf / Vd / Cmax / Tmax: beagle, dog, plasma; for concentration at 0.083 h / concentration at 0.25 h / concentration at 0.5 h / concentration at 1 h / concentration at 2 h / concentration at 4 h / concentration at 8 h / concentration at 24 h: dog PK study 1, IV; for MRT inf: read-out: MRTInf—obs; for Vd: read-out: Vss—obs; for animal's temperature: test animal 3 in group 1 (1 mg/kg IV)
Protocol: The purpose of this study was to examine the pharmacokinetics of Example 101 in beagle dogs. […] An oral PK study was also undertaken in Lewis rats—see Experimental Method C.
Body weight was recoded prior to dosing, and detailed clinical observations were made prior to dosing and throughout the study, as needed.
Subsequently, 17.320 mL Vitamin E TPGS was added, and the solution was vortexed and sonicated. Then, 51.960 mL water was added, and solution was then heated. […] Subsequently, 39.894 mL Vitamin E TPGS was added, and the solution was vortexed and sonicated. Then, 119.682 mL water was added, and the solution was heated.
Blood samples (˜0.3 mL) were collected according to a schedule (detailed below) by venipuncture of peripheral veins except for the dosing vein, and EDTA-K2 was used as anticoagulant. Within 30 minutes of collection, the samples were centrifuged at approximately 2000×g for 10 minutes at 4° C. to obtain blood plasma. The plasma samples were immediately divided into two aliquots (˜75 μL each), transferred to a cryogenic vial, and stored in a freezer at −75±15° C. prior to analysis. […]
The experiments were conducted on a Shimadzu DGU-20A5R and AB API 5500+LC/MS/MS instrument with an Agilent Poroshell EC-C18 4 μm (50×2.1 mm) column. A gradient of 95% water (0.1% formic acid)/95% acetonitrile (0.1% formic acid) was used as the mobile phase. The sample injection volume was 1 μL, and the flow rate was 0.6 mL/min. The gathered data were used for pharmacokinetic calculations using T½, C0, AUClast, AUCinf, MRTinf, CI, Vss, and Number of Points for Regression as parameters.

[3] = iv, 1 mg/kg, Test Animal 1, read-out: Plasma concentration
[4] = iv, 1 mg/kg, Test Animal 2, read-out: Plasma concentration
[5] = iv, 1 mg/kg, Test Animal 3, read-out: Plasma concentration
[6] = iv, 1 mg/kg, mean, read-out: Average plasma concentration, Mean
[7] = iv, 1 mg/kg, dog PK study 1, intravenous, Test Animal 1
[8] = iv, 1 mg/kg, dog PK study 1, intravenous, Test Animal 2
[9] = iv, 1 mg/kg, dog PK study 1, intravenous, Test Animal 3
[10] = iv, 1 mg/kg, dog PK study 1, intravenous, mean
[11] = po, 5 mg/kg, dog PK study 1, oral, Test Animal 1
[12] = po, 5 mg/kg, dog PK study 1, oral, Test Animal 2
[13] = po, 5 mg/kg, dog PK study 1, oral, Test Animal 3
[14] = po, 5 mg/kg, dog PK study 1, oral, mean
[15] = dog PK study 1, intravenous, Test Animal 1
[16] = dog PK study 1, intravenous, Test Animal 2
[17] = dog PK study 1, intravenous, Test Animal 3
[18] = dog PK study 1, intravenous, mean
[19] = dog PK study 1, oral, Test Animal 1
[20] = dog PK study 1, oral, Test Animal 2
[21] = dog PK study 1, oral, Test Animal 3

Q: With `CNC(=O)c1[nH]c(C(=O)NC2CCC2)cc1O[C@@H](C)c1ccccc1` (stereo in doubt) [Example 101, N^5-cyclobutyl-N^2-methyl-3-(1-phenylethoxy)-1H-pyrrole-2,5-dicarboxamide] as the compound, how does the “PO F” value ([1]; PO 5 mg/kg, Method 1) read?
A: 66%

Q: What about the half-life ([1]; male, Sprague-Dawley, rat, plasma, iv, 1 mg/kg, IV 1 mg/kg, Method 1, read-out: IV T1/2 (converted)) of the same compound?
A: 0.9 h

Q: And the “plasma concentration as a function of time (FIG. 1A)” value ([2]; beagle dogs, 1 mg/kg IV, group 1)?
A: Decreases in plasma concentration were consistent across all animals and timepoints

Q: And the “time post-administration at which plasma concentrations began to steadily decrease (FIG. 1B)” value ([2]; beagle dogs, 5 mg/kg PO, group 2)?
A: approximately 1 h

Q: And the tolerability ([2]; beagle dogs, PK studies 1 and 2, oral and intravenous)?
A: capable of being administered orally and intravenously and well tolerated

Q: What about the concentration at 0.083 h [2, 3] of the same compound?
A: 1340 ng/mL

Q: And the concentration at 0.083 h [2, 4]?
A: 1320 ng/mL

Q: What about the concentration at 0.083 h [2, 5] of the same compound?
A: 1370 ng/mL

Q: What about the concentration at 0.083 h [2, 6] of the same compound?
A: 1340 ng/mL

Q: What about the concentration at 0.25 h [2, 3] of the same compound?
A: 1120 ng/mL

Q: And the concentration at 0.25 h [2, 4]?
A: 954 ng/mL

Q: What about the concentration at 0.25 h [2, 5] of the same compound?
A: 1110 ng/mL

Q: And the concentration at 0.25 h [2, 6]?
A: 1060 ng/mL

Q: And the concentration at 0.5 h [2, 3]?
A: 1040 ng/mL

Q: What about the concentration at 0.5 h [2, 4] of the same compound?
A: 747 ng/mL

Q: And the concentration at 0.5 h [2, 5]?
A: 867 ng/mL

Q: What about the concentration at 0.5 h [2, 6] of the same compound?
A: 885 ng/mL

Q: What about the concentration at 1 h [2, 3] of the same compound?
A: 623 ng/mL

Q: And the concentration at 1 h [2, 4]?
A: 580 ng/mL

Q: What about the concentration at 1 h [2, 5] of the same compound?
A: 520 ng/mL

Q: And the concentration at 1 h [2, 6]?
A: 574 ng/mL

Q: What about the concentration at 2 h [2, 3] of the same compound?
A: 314 ng/mL

Q: And the concentration at 2 h [2, 4]?
A: 265 ng/mL

Q: What about the concentration at 2 h [2, 5] of the same compound?
A: 313 ng/mL

Q: What about the concentration at 2 h [2, 6] of the same compound?
A: 297 ng/mL

Q: What about the concentration at 4 h [2, 3] of the same compound?
A: 81.6 ng/mL

Q: What about the concentration at 4 h [2, 4] of the same compound?
A: 56.5 ng/mL

Q: And the concentration at 4 h [2, 5]?
A: 68 ng/mL

Q: And the concentration at 4 h [2, 6]?
A: 68.7 ng/mL

Q: And the concentration at 8 h [2, 3]?
A: 15.7 ng/mL

Q: And the concentration at 8 h [2, 4]?
A: 3.65 ng/mL

Q: And the concentration at 8 h [2, 5]?
A: 4.61 ng/mL

Q: And the concentration at 8 h [2, 6]?
A: 8 ng/mL

Q: What about the concentration at 24 h [2, 3] of the same compound?
A: 0 ng/mL

Q: And the concentration at 24 h [2, 4]?
A: 0 ng/mL

Q: And the concentration at 24 h [2, 5]?
A: 0 ng/mL

Q: And the concentration at 24 h [2, 6]?
A: 0 ng/mL

Q: What about the AUC(0-inf) [2, 7] of the same compound?
A: 2100 ng·h/mL

Q: And the AUC(0-t) [2, 7]?
A: 2070 ng·h/mL

Q: What about the C0 [2, 7] of the same compound?
A: 1460 ng/mL

Q: And the half-life [2, 7]?
A: 1.42 h

Q: And the MRT inf [2, 7]?
A: 1.54 h

Q: What about the Vd [2, 7] of the same compound?
A: 0.734 L/kg

Q: And the AUC(0-inf) [2, 8]?
A: 1720 ng·h/mL

Q: What about the AUC(0-t) [2, 8] of the same compound?
A: 1720 ng·h/mL

Q: And the C0 [2, 8]?
A: 1550 ng/mL

Q: What about the half-life [2, 8] of the same compound?
A: 0.976 h

Q: What about the MRT inf [2, 8] of the same compound?
A: 1.29 h

Q: What about the Vd [2, 8] of the same compound?
A: 0.747 L/kg

Q: What about the AUC(0-inf) [2, 9] of the same compound?
A: 1870 ng·h/mL

Q: What about the AUC(0-t) [2, 9] of the same compound?
A: 1860 ng·h/mL

Q: And the C0 [2, 9]?
A: 1520 ng/mL

Q: What about the half-life [2, 9] of the same compound?
A: 0.992 h

Q: And the MRT inf [2, 9]?
A: 1.35 h

Q: What about the Vd [2, 9] of the same compound?
A: 0.719 L/kg

Q: What about the AUC(0-inf) [2, 10] of the same compound?
A: 1900 ng·h/mL

Q: And the AUC(0-t) [2, 10]?
A: 1880 ng·h/mL

Q: What about the C0 [2, 10] of the same compound?
A: 1510 ng/mL

Q: And the half-life [2, 10]?
A: 1.13 h

Q: What about the MRT inf [2, 10] of the same compound?
A: 1.39 h

Q: And the Vd [2, 10]?
A: 0.733 L/kg

Q: And the AUC(0-t) [2, 11]?
A: 4520 ng·h/mL

Q: And the Cmax [2, 11]?
A: 2220 ng/mL

Q: And the Tmax [2, 11]?
A: 1 h

Q: And the AUC(0-inf) [2, 12]?
A: 2960 ng·h/mL

Q: What about the AUC(0-t) [2, 12] of the same compound?
A: 2930 ng·h/mL

Q: And the Cmax [2, 12]?
A: 1550 ng/mL

Q: What about the Tmax [2, 12] of the same compound?
A: 0.5 h

Q: What about the half-life [2, 12] of the same compound?
A: 1.15 h

Q: What about the MRT inf [2, 12] of the same compound?
A: 1.62 h

Q: And the AUC(0-inf) [2, 13]?
A: 5010 ng·h/mL

Q: What about the AUC(0-t) [2, 13] of the same compound?
A: 5000 ng·h/mL

Q: What about the Cmax [2, 13] of the same compound?
A: 2240 ng/mL

Q: And the Tmax [2, 13]?
A: 1 h

Q: What about the half-life [2, 13] of the same compound?
A: 0.845 h

Q: And the MRT inf [2, 13]?
A: 1.83 h

Q: What about the AUC(0-inf) [2, 14] of the same compound?
A: 3980 ng·h/mL

Q: What about the AUC(0-t) [2, 14] of the same compound?
A: 4150 ng·h/mL

Q: What about the Cmax [2, 14] of the same compound?
A: 2000 ng/mL

Q: What about the Tmax [2, 14] of the same compound?
A: 0.83 h

Q: What about the half-life [2, 14] of the same compound?
A: 1 h

Q: What about the MRT inf [2, 14] of the same compound?
A: 1.73 h

Q: What about the AUClast/D [2, 15] of the same compound?
A: 2066 (ng · h/mL)/(mg/kg)

Q: And the “AUC—% Extrap—obs” value [2, 15]?
A: 1.54%

Q: And the Cl_obs [2, 15]?
A: 7.94 mL/min/kg

Q: What about the AUClast/D [2, 16] of the same compound?
A: 1718 (ng · h/mL)/(mg/kg)

Q: What about the “AUC—% Extrap—obs” value [2, 16] of the same compound?
A: 0.298%

Q: What about the Cl_obs [2, 16] of the same compound?
A: 9.67 mL/min/kg

Q: And the AUClast/D [2, 17]?
A: 1864 (ng · h/mL)/(mg/kg)

Q: And the “AUC—% Extrap—obs” value [2, 17]?
A: 0.353%

Q: What about the Cl_obs [2, 17] of the same compound?
A: 8.91 mL/min/kg

Q: And the AUClast/D [2, 18]?
A: 1883 (ng · h/mL)/(mg/kg)

Q: What about the “AUC—% Extrap—obs” value [2, 18] of the same compound?
A: 0.73%

Q: What about the Cl_obs [2, 18] of the same compound?
A: 8.84 mL/min/kg

Q: And the AUClast/D [2, 19]?
A: 903 (ng · h/mL)/(mg/kg)

Q: What about the F [2, 19] of the same compound?
A: 48.0%

Q: What about the AUClast/D [2, 20] of the same compound?
A: 586 (ng · h/mL)/(mg/kg)

Q: And the “AUC—% Extrap—obs” value [2, 20]?
A: 0.831%

Q: What about the F [2, 20] of the same compound?
A: 31.1%

Q: What about the AUClast/D [2, 21] of the same compound?
A: 1000 (ng · h/mL)/(mg/kg)

Q: And the “AUC—% Extrap—obs” value [2, 21]?
A: 0.232%

Q: And the F [2, 21]?
A: 52.8%

Q: And the AUClast/D ([2]; dog PK study 1, oral, mean)?
A: 830 (ng · h/mL)/(mg/kg)

Q: What about the “AUC—% Extrap—obs” value ([2]; dog PK study 1, oral, mean) of the same compound?
A: 0.531%

Q: And the F ([2]; dog PK study 1, oral, mean)?
A: 44.0%

Q: What about the “animal's temperature” value ([2]; 4 h timepoint) of the same compound?
A: 36.4 °C

Q: And the “animal's temperature” value ([2]; 6 h timepoint)?
A: 38.1 °C
